In US20250353853A1, “FLAVIVIRUS INHIBITORS” (IRBM S.P.A., priority 2022, published 2025) one finds EC50 and IC50 data, which are given here for 26 compounds.

Experiment [1] concerns ZIKV replicon in Vero cells. The experiment can be described thus: ZIKV Replication Inhibition Assay (replicon, NanoLuc). Conditions: Zika virus, Vero, 72 h, read-out: Zika Replicon EC50. A general note: Replicon systems follow genome replication, usually without infectious particles.
Experiment [2] has as its target West Nile Virus (WNV) NS2B-NS3 protease (West Nile virus (WNV), UniProt P06935). Put plainly: WNV Protease Inhibition Assay. In kind it is biochemical. From the text: WNV Protease Inhibition Assay
[3] abbreviates: 2 nM protease, 10 μM pERTKR-AMC substrate, read-out: WNV Protease IC50.

Read-outs that look alike come from different tables or passages of the source.

Chain of West Nile Virus (WNV) NS2B-NS3 protease (P06935 1502-1679 limits assumed): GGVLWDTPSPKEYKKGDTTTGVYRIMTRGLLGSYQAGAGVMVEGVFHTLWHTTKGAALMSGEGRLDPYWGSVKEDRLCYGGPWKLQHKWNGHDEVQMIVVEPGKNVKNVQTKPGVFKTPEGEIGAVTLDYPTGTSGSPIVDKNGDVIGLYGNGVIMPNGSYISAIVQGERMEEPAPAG
Chain of West Nile Virus (WNV) NS2B-NS3 protease (P06935 1371-1501 partner limits assumed): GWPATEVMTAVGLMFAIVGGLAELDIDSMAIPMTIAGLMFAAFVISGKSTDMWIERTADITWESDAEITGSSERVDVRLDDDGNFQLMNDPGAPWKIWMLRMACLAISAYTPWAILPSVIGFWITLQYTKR

For the compound `C[C@H](c1ccc(-c2cncnc2)cc1)[n+]1cc([N-]C(=O)Nc2cncc(C(F)(F)F)c2)on1` [Example 75, (R)-(3-(1-(4-(pyrimidin-5-yl)phenyl)ethyl)-1,2,3-oxadiazol-3-ium-5-yl)((5-(trifluoromethyl)pyridin-3-yl)carbamoyl)amide], in experiment [1], the EC50 – broadly, the concentration needed to bring the measured effect to its halfway point – lay in the range of 100 to 1000 nM. In experiment [2] (setting [3]), the IC50 – broadly, the midpoint of a concentration-inhibition curve – is less than 100 nM.
On to `Cc1noc(C)c1-c1ccc(C[n+]2cc([N-]C(=O)Nc3cncc(C4CC4)c3)on2)nc1` [Example 146, ((5-cyclopropylpyridin-3-yl)carbamoyl)(3-((5-(3,5-dimethylisoxazol-4-yl)pyridin-2-yl)methyl)-1,2,3-oxadiazol-3-ium-5-yl)amide], for which the EC50 in experiment [1] lay within 100 to 1000 nM. Further, the IC50 in experiment [2] fell in the range of 100 to 1000 nM.
As for `COc1ncnc(C)c1-c1ccc(C[n+]2cc([N-]C(=O)Nc3cccc(C(F)(F)F)c3)on2)nc1` [Example 135, (3-((5-(4-methoxy-6-methylpyrimidin-5-yl)pyridin-2-yl)methyl)-1,2,3-oxadiazol-3-ium-5-yl)((3-(trifluoromethyl)phenyl)carbamoyl)amide], the EC50 in experiment [1] was less than 100 nM. The IC50 in experiment [2] (setting [3]) is less than 100 nM.
`O=C([N-]c1c[n+](Cc2ccc(-c3ccnnc3)cn2)no1)Nc1cccc(C(F)(F)F)c1` [Example 160, (3-((5-(pyridazin-4-yl)pyridin-2-yl)methyl)-1,2,3-oxadiazol-3-ium-5-yl)((3-(trifluoromethyl)phenyl)carbamoyl)amide]: the EC50 in experiment [1] was 100 to 1000 nM. Besides, in experiment [2] (setting [3]), the IC50 was less than 100 nM.
Regarding `Cc1noc(C)c1-c1ccc(C[n+]2cc([N-]C(=O)Nc3ncc(C(F)(F)F)s3)on2)nc1` [Example 166, (3-((5-(3,5-dimethylisoxazol-4-yl)pyridin-2-yl)methyl)-1,2,3-oxadiazol-3-ium-5-yl)((5-(trifluoromethyl)thiazol-2-yl)carbamoyl)amide], in experiment [1], the EC50 was less than 100 nM. This compound also had an IC50 in experiment [2] of 100 to 1000 nM.
As for `Cc1cnncc1-c1ccc(C[n+]2cc([N-]C(=O)Nc3cccc(C(F)(F)F)c3)on2)nc1` [Example 129, (3-((5-(5-methylpyridazin-4-yl)pyridin-2-yl)methyl)-1,2,3-oxadiazol-3-ium-5-yl)((3-(trifluoromethyl)phenyl)carbamoyl)amide], in experiment [1], the EC50 is 100 to 1000 nM. Besides, the IC50 in experiment [2] (setting [3]) is less than 100 nM.
As to `O=C([N-]c1c[n+](Cc2ccc(I)cc2)no1)Nc1cncc(C(F)(F)F)c1` [Example 55, (3-(4-iodobenzyl)-1,2,3-oxadiazol-3-ium-5-yl)((5-(trifluoromethyl)pyridin-3-yl)carbamoyl)amide], the EC50 in experiment [1] lay in the range of 100 to 1000 nM. Further, in experiment [2], the IC50 was 100 to 1000 nM.
As to `Cc1cnn(C)c1-c1ccc(C[n+]2cc([N-]C(=O)Nc3cccc(C(F)(F)F)c3)on2)nc1` [Example 165, (3-((5-(1,4-dimethyl-1H-pyrazol-5-yl)pyridin-2-yl)methyl)-1,2,3-oxadiazol-3-ium-5-yl)((3-(trifluoromethyl)phenyl)carbamoyl)amide], the EC50 in experiment [1] is less than 100 nM. The same compound came in with an IC50 in experiment [2] of 100 to 1000 nM.
For `COc1ncnc(C)c1-c1ccc(C[n+]2cc([N-]C(=O)Nc3cncc(C(F)(F)F)c3)on2)nc1` [Example 136, (3-((5-(4-methoxy-6-methylpyrimidin-5-yl)pyridin-2-yl)methyl)-1,2,3-oxadiazol-3-ium-5-yl)((5-(trifluoromethyl)pyridin-3-yl)carbamoyl)amide], in experiment [1], the EC50 was in the range of 100 to 1000 nM. The same compound returned an IC50 in experiment [2] of 100 to 1000 nM.
With `O=C([N-]c1c[n+](Cc2ccc(-c3cnccn3)cc2)no1)Nc1cccc(C(F)(F)F)c1` [Example 42, (3-(4-(pyrazin-2-yl)benzyl)-1,2,3-oxadiazol-3-ium-5-yl)((3-(trifluoromethyl)phenyl)carbamoyl)amide], the EC50 in experiment [1] is 100 to 1000 nM. This compound also showed an IC50 in experiment [2] of 100 to 1000 nM.
`COc1ncc(-c2ccc(C[n+]3cc([N-]C(=O)Nc4cncc(C(F)(F)F)c4)on3)cc2)cn1` [Example 58, (3-(4-(2-methoxypyrimidin-5-yl)benzyl)-1,2,3-oxadiazol-3-ium-5-yl)((5-(trifluoromethyl)pyridin-3-yl)carbamoyl)amide]: in experiment [1], the EC50 lay within 100 to 1000 nM. In experiment [2] (setting [3]), the IC50 is less than 100 nM.
`Cc1noc(C)c1-c1ccc(C[n+]2cc([N-]C(=O)Nc3cccc(C(F)(F)F)n3)on2)nc1` [Example 161, (3-((5-(3,5-dimethylisoxazol-4-yl)pyridin-2-yl)methyl)-1,2,3-oxadiazol-3-ium-5-yl)((6-(trifluoromethyl)pyridin-2-yl)carbamoyl)amide]: the EC50 in experiment [1] was in the range of 1000 to 20000 nM. In experiment [2], this compound displayed an IC50 of 1000 to 20000 nM.
For `C[C@H](c1ccc(Br)cc1)[n+]1cc([N-]C(=O)Nc2cncc(C(F)(F)F)c2)on1` [Example 73, (R)-(3-(1-(4-bromophenyl)ethyl)-1,2,3-oxadiazol-3-ium-5-yl)((5-(trifluoromethyl)pyridin-3-yl)carbamoyl)amide], in experiment [1], the EC50 was 1000 to 20000 nM. This compound also had an IC50 in experiment [2] of 1000 to 20000 nM.
Regarding `COc1ncc(-c2ccc(C[n+]3cc([N-]C(=O)Nc4cncc(C(F)(F)F)c4)on3)nc2)c(C)n1` [Example 133, (3-((5-(2-methoxy-4-methylpyrimidin-5-yl)pyridin-2-yl)methyl)-1,2,3-oxadiazol-3-ium-5-yl)((5-(trifluoromethyl)pyridin-3-yl)carbamoyl)amide], the EC50 in experiment [1] lay in the range of 100 to 1000 nM. Also, the IC50 in experiment [2] lay in the range of 100 to 1000 nM.
Consider `Cc1ncnc(C)c1-c1ccc(C[n+]2cc([N-]C(=O)Nc3ccnc(C(F)(F)F)c3)on2)nc1` [Example 176, (3-((5-(4,6-dimethylpyrimidin-5-yl)pyridin-2-yl)methyl)-1,2,3-oxadiazol-3-ium-5-yl)((2-(trifluoromethyl)pyridin-4-yl)carbamoyl)amide], for which the EC50 in experiment [1] fell in the range of 100 to 1000 nM. Further, the IC50 in experiment [2] (setting [3]) is less than 100 nM.
Regarding `Cc1ncnc(C)c1-c1ccc([C@@H](C)[n+]2cc(NC(=O)Nc3ccnc(C(F)(F)F)c3)on2)cc1` [Example 188, (R)-(3-(1-(4-(4,6-dimethylpyrimidin-5-yl)phenyl)ethyl)-1,2,3-oxadiazol-3-ium-5-yl)((2-(trifluoromethyl)pyridin-4-yl)carbamoyl)amide], in experiment [1], the EC50 is less than 100 nM. Besides, in experiment [2], the IC50 is less than 100 nM.
For `O=C([N-]c1c[n+](Cc2ccc(-c3cncnc3)cc2)no1)Nc1cncc(C(F)(F)F)c1` [Example 57, (3-(4-(pyrimidin-5-yl)benzyl)-1,2,3-oxadiazol-3-ium-5-yl)((5-(trifluoromethyl)pyridin-3-yl)carbamoyl)amide], the EC50 in experiment [1] is less than 100 nM. The half-inhibitory concentration (IC50) in experiment [2] (setting [3]) is less than 100 nM.
On to `O=C([N-]c1c[n+](Cc2ccc(Br)cc2)no1)Nc1cccc(C(F)(F)F)c1` [Example 19, (3-(4-bromobenzyl)-1,2,3-oxadiazol-3-ium-5-yl)((3-(trifluoromethyl)phenyl)carbamoyl)amide], for which, in experiment [1], the EC50 lay in the range of 100 to 1000 nM. Moreover, in experiment [2] (setting [3]), the IC50 was less than 100 nM.
As for `O=C([N-]c1c[n+](Cc2ccc(-c3ccncc3F)cn2)no1)Nc1cccc(C(F)(F)F)c1` [Example 164, (3-((3′-fluoro-[3,4′-bipyridin]-6-yl)methyl)-1,2,3-oxadiazol-3-ium-5-yl)((3-(trifluoromethyl)phenyl)carbamoyl)amide], the EC50 in experiment [1] was less than 100 nM. In addition, in experiment [2], the IC50 lay in the range of 100 to 1000 nM.
As for `O=C([N-]c1c[n+](Cc2ccc(-c3ccnnc3)cn2)no1)Nc1cncc(C(F)(F)F)c1` [Example 145, (3-((5-(pyridazin-4-yl)pyridin-2-yl)methyl)-1,2,3-oxadiazol-3-ium-5-yl)((5-(trifluoromethyl)pyridin-3-yl)carbamoyl)amide], in experiment [1], the EC50 is 1000 to 20000 nM. Also, the IC50 in experiment [2] was 100 to 1000 nM.
As for `O=C([N-]c1c[n+](Cc2cccc(Br)c2)no1)Nc1cccc(C(F)(F)F)c1` [Example 46, (3-(3-bromobenzyl)-1,2,3-oxadiazol-3-ium-5-yl)((3-(trifluoromethyl)phenyl)carbamoyl)amide], the EC50 in experiment [1] was 1000 to 20000 nM. This compound also gave an IC50 in experiment [2] of 100 to 1000 nM.
In the case of `N#Cc1ncncc1-c1ccc(C[n+]2cc([N-]C(=O)Nc3cccc(C(F)(F)F)c3)on2)nc1` [Example 148, (3-((5-(4-cyanopyrimidin-5-yl)pyridin-2-yl)methyl)-1,2,3-oxadiazol-3-ium-5-yl)((3-(trifluoromethyl)phenyl)carbamoyl)amide], the EC50 in experiment [1] was in the range of 100 to 1000 nM. Moreover, in experiment [2] (setting [3]), the IC50 is less than 100 nM.
With `Cc1noc(C)c1-c1ccc(C[n+]2cc([N-]C(=O)Nc3cnc(C(F)(F)F)s3)on2)nc1` [Example 154, (3-((5-(3,5-dimethylisoxazol-4-yl)pyridin-2-yl)methyl)-1,2,3-oxadiazol-3-ium-5-yl)((2-(trifluoromethyl)thiazol-5-yl)carbamoyl)amide], in experiment [1], the EC50 is 100 to 1000 nM. The compound further gave an IC50 in experiment [2] of 100 to 1000 nM.
For the compound `Cc1ncnc(C)c1-c1ccc(C[n+]2cc([N-]C(=O)Nc3cccc(C(F)(F)F)c3)on2)nn1` [Example 184, (3-((6-(4,6-dimethylpyrimidin-5-yl)pyridazin-3-yl)methyl)-1,2,3-oxadiazol-3-ium-5-yl)((3-(trifluoromethyl)phenyl)carbamoyl)amide], the EC50 in experiment [1] was in the range of 100 to 1000 nM. In experiment [2], this compound had an IC50 of 100 to 1000 nM.
Take `Cc1cnn(C)c1-c1ccc(C[n+]2cc([N-]C(=O)Nc3cncc(C(F)(F)F)c3)on2)nc1` [Example 178, (3-((5-(1,4-dimethyl-1H-pyrazol-5-yl)pyridin-2-yl)methyl)-1,2,3-oxadiazol-3-ium-5-yl)((5-(trifluoromethyl)pyridin-3-yl)carbamoyl)amide]: the concentration for a half-maximal effect (EC50) in experiment [1] is less than 100 nM. This compound came in with an IC50 in experiment [2] of 100 to 1000 nM.
`Cc1noc(C)c1-c1ccc(C[n+]2cc([N-]C(=O)Nc3ccc(F)c(C(F)(F)F)c3)on2)nc1` [Example 150, (3-((5-(3,5-dimethylisoxazol-4-yl)pyridin-2-yl)methyl)-1,2,3-oxadiazol-3-ium-5-yl)((4-fluoro-3-(trifluoromethyl)phenyl)carbamoyl)amide]: the EC50 in experiment [1] was less than 100 nM. Besides, the IC50 in experiment [2] lay in the range of 100 to 1000 nM.
